# Test system: not listed separately
# Assay: Lipophilicity coefficient RM0 by reversed phase thin layer chromatography
# Type: physicochemical
# Conditions: RP-18 TLC, methanol/phosphate buffer pH=7.4
# Experimental: Confirmation of the identity and purity of the obtained compounds consisted in the registration and interpretation of 1H NMR and 13C NMR spectra (the spectra were recorded using an ECZR 500 MHZ (JEOL) series FT-NMR spectrophotometer), as well as the registration and interpretation of LC-MS spectra (the spectra were recorded using Acquita UPLC system (Waters) coupled with a Waters TQD mass spectrometer). The melting point was measured using the open capillary method in the IA9300 device (Electrothermal). The lipophilicity coefficient RM0 was determined by reversed phase thin layer chromatography. In the study, aluminum plates 20×20 cm covered with modified silica gel RP-18 F254 (Merck) were used as the solid phase. The mobile phase consisted of solutions of methanol and 100 mM phosphate buffer (pH=7.4), characterized by a variable methanol content ranging from 95 to 65% (v/v). The tested compounds were dissolved in methanol to obtain solutions with a concentration of 1 mg/mL. Then, […] of the solutions prepared in this way were transferred to the starting line on aluminum plates, which were then placed in chromatographic chambers previously saturated with mobile phase vapors for at least 1 hour. All activities, including the development of chromatograms, were carried out at room temperature. After developing the chromatograms to approximately 1-2 cm from the end of the plate, the plates were dried and then the distance traveled by the tested compounds was visualized under UV light (λ=254 nm). The experiment was performed in duplicate for the specified conditions. For all samples, Rf was calculated according to the formula Rf=a/b, where a—the distance traveled by the tested compound, b—the distance traveled by the mobile phase. Then, the RM parameter was calculated for all samples according to the formula RM=log (1/Rf−1), obtaining a linear relationship between the RM values and the methanol concentration in the mobile phase. The log P coefficient was also calculated using the following computer programs: ACD/ChemSketch 2020.1.2 and ChemDraw 20.0.0.41.
row,Structure (SMILES),RM0
1,"CCC(CO)NC(=O)/C=C/c1ccc(Cl)cc1 (centres unmarked) [Compound A-01, (2E)-3-(4-chlorophenyl)-N-(1-hydroxybutan-2-yl)prop-2-enamide]",2.43
2,"CCC(O)CNC(=O)/C=C/c1ccc(C)cc1 (centres unmarked) [Compound A-63, (2E)-N-(2-hydroxybutyl)-3-(4-methylphenyl)prop-2-enamide]",2.39
3,"Cc1ccc(/C=C/C(=O)NC(C)CO)cc1 (centres unmarked) [Compound A-69, (2E)-N-(1-hydroxypropan-2-yl)-3-(4-methylphenyl)prop-2-enamide]",2.17
4,"O=C(/C=C/c1ccc(Cl)cc1)N1CCC(O)CC1 [Compound A-99, (2E)-3-(4-chlorophenyl)-1-(4-hydroxypiperidin-1-yl)prop-2-en-1-one]",2.27
5,"CC(C)C(CO)NC(=O)/C=C/c1ccc(Cl)cc1 (centres unmarked) [Compound A-106, (2E)-3-(4-chlorophenyl)-N-(1-hydroxy-3-methylbutan-2-yl)prop-2-enamide]",2.76
6,"O=C(/C=C/c1ccc(Cl)cc1Cl)NCCCO [H-296/20, (2E)-3-(2,4-dichlorophenyl)-N-(3-hydroxypropyl)prop-2-enamide]",2.11

# Second part, the compound after the results:
row,RM0,Structure (SMILES)
1,1.60,"O=C(/C=C/c1ccccc1)NCCCCO [Compound A-43, (2E)-N-(4-hydroxybutyl)-3-phenylprop-2-enamide]"
2,3.08,"CCC(CO)NC(=O)/C=C/c1ccc(Cl)cc1Cl (centres unmarked) [H-285/20, (2E)-3-(2,4-dichlorophenyl)-N-(1-hydroxybutan-2-yl)prop-2-enamide]"

# Molecular target: T1, tyrosinase from mushroom (Agaricus bisporus, UniProt C7FF04)
# T1 sequence (C7FF04 2-392): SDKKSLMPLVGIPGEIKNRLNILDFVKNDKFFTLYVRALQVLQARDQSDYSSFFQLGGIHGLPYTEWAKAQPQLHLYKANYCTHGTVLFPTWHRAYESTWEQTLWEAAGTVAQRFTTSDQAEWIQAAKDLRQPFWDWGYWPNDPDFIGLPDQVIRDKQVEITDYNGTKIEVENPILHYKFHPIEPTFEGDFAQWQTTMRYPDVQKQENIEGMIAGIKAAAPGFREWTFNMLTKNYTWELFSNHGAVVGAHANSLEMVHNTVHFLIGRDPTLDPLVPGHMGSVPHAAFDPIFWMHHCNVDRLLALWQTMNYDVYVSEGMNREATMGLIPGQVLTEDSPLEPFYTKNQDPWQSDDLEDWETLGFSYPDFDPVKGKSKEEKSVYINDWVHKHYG
# T1 sequence (G1K3P4 entry or part of it, further chain): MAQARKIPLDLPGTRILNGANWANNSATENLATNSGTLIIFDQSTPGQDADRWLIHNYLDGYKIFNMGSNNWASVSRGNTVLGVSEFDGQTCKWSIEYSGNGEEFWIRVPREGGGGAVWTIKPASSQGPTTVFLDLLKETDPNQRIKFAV
# Assay: Inhibition of commercial mushroom tyrosinase, substrate L-DOPA
# Type: biochemical
# Conditions: 500 μM; read-out: Tyrosinase inhibition with L-DOPA [%]
# Experimental: (§1) Studies on the Inhibition of the Activity of Commercial Tyrosinase from Mushroom (Sigma: T3824)
# (§2) The following substrates were used for the enzymatic reaction: L-tyrosine and L-3,4-dihyroxyphenylalanine (L-DOPA). Both substrates were used in independent experiments. According to the literature, the use of L-DOPA enables the assessment of tyrosinase diphenolase activity, and L-tyrosine—the tyrosinase monophenolase activity. The determinations were performed in 96-well plates, in each well there was placed: 170 μL or 127.5 μL of 50 mM phosphate buffer (pH=6.8) with tyrosinase (1U/well or 3U/well) and 10 μL of a solution of the tested compound in DMSO (the final concentration in the well was 500 μM, 250 μM or 125 μM). The negative control used 10 u L of pure solvent (DMSO). To initiate the reaction, an appropriate substrate was added: L-tyrosine (62.5 μL of solution in phosphate buffer) or L-DOPA (20 μL of solution in phosphate buffer). After a 25-minute incubation, the absorbance was measured at 475 nm using a microplate reader. The percentage of inhibition of tyrosinase activity was calculated using the formula: [(AC−AT)/[…], where AC—is the absorbance of the negative control, AT—is the absorbance of the sample containing the tested compound.
row,Structure (SMILES),inhibition at 500 µM [%]
1,"CCC(CO)NC(=O)/C=C/c1ccc(Cl)cc1 (centres unmarked) [Compound A-01, (2E)-3-(4-chlorophenyl)-N-(1-hydroxybutan-2-yl)prop-2-enamide]",44 ± 2.6
2,"CCC(O)CNC(=O)/C=C/c1ccc(C)cc1 (centres unmarked) [Compound A-63, (2E)-N-(2-hydroxybutyl)-3-(4-methylphenyl)prop-2-enamide]",21.2 ± 1.26
3,"Cc1ccc(/C=C/C(=O)NC(C)CO)cc1 (centres unmarked) [Compound A-69, (2E)-N-(1-hydroxypropan-2-yl)-3-(4-methylphenyl)prop-2-enamide]",23 ± 6.64
4,"CC(C)C(CO)NC(=O)/C=C/c1ccc(Cl)cc1 (centres unmarked) [Compound A-106, (2E)-3-(4-chlorophenyl)-N-(1-hydroxy-3-methylbutan-2-yl)prop-2-enamide]",41.2 ± 0.81
5,"O=C(/C=C/c1ccc(Cl)cc1Cl)NCCCO [H-296/20, (2E)-3-(2,4-dichlorophenyl)-N-(3-hydroxypropyl)prop-2-enamide]",18.6 ± 1.67

# Other lines, results leading:
row,inhibition at 500 µM [%],Structure (SMILES)
1,34.5 ± 4.18,"O=C(/C=C/c1ccccc1)NCCCCO [Compound A-43, (2E)-N-(4-hydroxybutyl)-3-phenylprop-2-enamide]"
2,0.21 ± 5.64,"CCC(CO)NC(=O)/C=C/c1ccc(Cl)cc1Cl (centres unmarked) [H-285/20, (2E)-3-(2,4-dichlorophenyl)-N-(1-hydroxybutan-2-yl)prop-2-enamide]"

# Molecular target: T1, tyrosinase from mushroom
# Assay: Inhibition of commercial mushroom tyrosinase, substrate L-tyrosine
# Type: biochemical
# Conditions: 500 μM; read-out: Tyrosinase inhibition with L-tyrosine [%]
# Experimental: as §1, §2
row,Structure (SMILES),inhibition at 500 µM [%]
1,"CCC(CO)NC(=O)/C=C/c1ccc(Cl)cc1 (centres unmarked) [Compound A-01, (2E)-3-(4-chlorophenyl)-N-(1-hydroxybutan-2-yl)prop-2-enamide]",61.8 ± 0.4
2,"CCC(O)CNC(=O)/C=C/c1ccc(C)cc1 (centres unmarked) [Compound A-63, (2E)-N-(2-hydroxybutyl)-3-(4-methylphenyl)prop-2-enamide]",30.2 ± 10.2
3,"Cc1ccc(/C=C/C(=O)NC(C)CO)cc1 (centres unmarked) [Compound A-69, (2E)-N-(1-hydroxypropan-2-yl)-3-(4-methylphenyl)prop-2-enamide]",4.4 ± 7.15
4,"O=C(/C=C/c1ccc(Cl)cc1)N1CCC(O)CC1 [Compound A-99, (2E)-3-(4-chlorophenyl)-1-(4-hydroxypiperidin-1-yl)prop-2-en-1-one]",75.1 ± 1.6
5,"CC(C)C(CO)NC(=O)/C=C/c1ccc(Cl)cc1 (centres unmarked) [Compound A-106, (2E)-3-(4-chlorophenyl)-N-(1-hydroxy-3-methylbutan-2-yl)prop-2-enamide]",57.6 ± 2.11
6,"O=C(/C=C/c1ccc(Cl)cc1Cl)NCCCO [H-296/20, (2E)-3-(2,4-dichlorophenyl)-N-(3-hydroxypropyl)prop-2-enamide]",17.9 ± 7.36

# Second part, the compound after the results:
row,inhibition at 500 µM [%],Structure (SMILES)
1,35.5 ± 1.37,"O=C(/C=C/c1ccccc1)NCCCCO [Compound A-43, (2E)-N-(4-hydroxybutyl)-3-phenylprop-2-enamide]"
2,14.6 ± 1.63,"CCC(CO)NC(=O)/C=C/c1ccc(Cl)cc1Cl (centres unmarked) [H-285/20, (2E)-3-(2,4-dichlorophenyl)-N-(1-hydroxybutan-2-yl)prop-2-enamide]"

# Test system: B16-F10 murine melanoma cell line
# Assay: Cytotoxicity (MTT) in B16-F10 murine melanoma cells
# Type: cell-based
# Conditions: 150 μM, 48 h
# Experimental: Cytotoxicity Assessment in the B16-F10 Murine Melanoma Cell Line (ATTC CRL-6745)—Preliminary Safety Assessment for Subsequent Studies
# In order to determine safe doses of compounds for testing the inhibition of melanogenesis in a murine melanoma cell line, cytotoxicity tests were performed. Cytotoxicity was determined by the colorimetric method using MTT ([3-(4,5-dimethyl-2-thiazolyl)-2,5-diphenyl-2H-tetrazolium bromide, Sigma M5655). For this purpose, cells were transferred to 96-well plates in an amount of 5000/well. After 24 h of culture in an incubator in F10-Ham medium with 1% FBS, the tested compounds at various concentrations were added to the wells together with fresh medium. DMSO was added to the medium in a negative control. The MTT test was performed after further culture for 48 h. Then the medium was removed and the formed formazan crystals were dissolved in DMSO. The absorbance was measured at 570 nm in a plate reader and the result was compared to the control (DMSO), which was 100%. The percentage of viability was calculated using the formula: [AT/AC*100], where AT is the absorbance of the test sample, AC—absorbance of the control sample.
row,Structure (SMILES),"Cytotoxicity study in B16F10 cells, % viability [%]"
1,"CCC(CO)NC(=O)/C=C/c1ccc(Cl)cc1 (centres unmarked) [Compound A-01, (2E)-3-(4-chlorophenyl)-N-(1-hydroxybutan-2-yl)prop-2-enamide]",73.6
2,"O=C(/C=C/c1ccccc1)NCCCCO [Compound A-43, (2E)-N-(4-hydroxybutyl)-3-phenylprop-2-enamide]",108.9
3,"CCC(O)CNC(=O)/C=C/c1ccc(C)cc1 (centres unmarked) [Compound A-63, (2E)-N-(2-hydroxybutyl)-3-(4-methylphenyl)prop-2-enamide]",90.2
4,"Cc1ccc(/C=C/C(=O)NC(C)CO)cc1 (centres unmarked) [Compound A-69, (2E)-N-(1-hydroxypropan-2-yl)-3-(4-methylphenyl)prop-2-enamide]",96.6
5,"O=C(/C=C/c1ccc(Cl)cc1)N1CCC(O)CC1 [Compound A-99, (2E)-3-(4-chlorophenyl)-1-(4-hydroxypiperidin-1-yl)prop-2-en-1-one]",109.8
6,"CC(C)C(CO)NC(=O)/C=C/c1ccc(Cl)cc1 (centres unmarked) [Compound A-106, (2E)-3-(4-chlorophenyl)-N-(1-hydroxy-3-methylbutan-2-yl)prop-2-enamide]",85.9
7,"CCC(CO)NC(=O)/C=C/c1ccc(Cl)cc1Cl (centres unmarked) [H-285/20, (2E)-3-(2,4-dichlorophenyl)-N-(1-hydroxybutan-2-yl)prop-2-enamide]",84.2
8,"O=C(/C=C/c1ccc(Cl)cc1Cl)NCCCO [H-296/20, (2E)-3-(2,4-dichlorophenyl)-N-(3-hydroxypropyl)prop-2-enamide]",67.0

# Same assay, conditions: 200 μM, 48 h
row,Structure (SMILES),"Cytotoxicity study in B16F10 cells, % viability [%]"
1,"CCC(CO)NC(=O)/C=C/c1ccc(Cl)cc1 (centres unmarked) [Compound A-01, (2E)-3-(4-chlorophenyl)-N-(1-hydroxybutan-2-yl)prop-2-enamide]",93.2
2,"O=C(/C=C/c1ccccc1)NCCCCO [Compound A-43, (2E)-N-(4-hydroxybutyl)-3-phenylprop-2-enamide]",105.7
3,"CCC(O)CNC(=O)/C=C/c1ccc(C)cc1 (centres unmarked) [Compound A-63, (2E)-N-(2-hydroxybutyl)-3-(4-methylphenyl)prop-2-enamide]",87.3
4,"Cc1ccc(/C=C/C(=O)NC(C)CO)cc1 (centres unmarked) [Compound A-69, (2E)-N-(1-hydroxypropan-2-yl)-3-(4-methylphenyl)prop-2-enamide]",101.3
5,"O=C(/C=C/c1ccc(Cl)cc1)N1CCC(O)CC1 [Compound A-99, (2E)-3-(4-chlorophenyl)-1-(4-hydroxypiperidin-1-yl)prop-2-en-1-one]",102.6
6,"CC(C)C(CO)NC(=O)/C=C/c1ccc(Cl)cc1 (centres unmarked) [Compound A-106, (2E)-3-(4-chlorophenyl)-N-(1-hydroxy-3-methylbutan-2-yl)prop-2-enamide]",88.1
7,"CCC(CO)NC(=O)/C=C/c1ccc(Cl)cc1Cl (centres unmarked) [H-285/20, (2E)-3-(2,4-dichlorophenyl)-N-(1-hydroxybutan-2-yl)prop-2-enamide]",74.8
8,"O=C(/C=C/c1ccc(Cl)cc1Cl)NCCCO [H-296/20, (2E)-3-(2,4-dichlorophenyl)-N-(3-hydroxypropyl)prop-2-enamide]",57.0

# Same assay, conditions: 250 μM, 48 h
row,Structure (SMILES),"Cytotoxicity study in B16F10 cells, % viability [%]"
1,"CCC(CO)NC(=O)/C=C/c1ccc(Cl)cc1 (centres unmarked) [Compound A-01, (2E)-3-(4-chlorophenyl)-N-(1-hydroxybutan-2-yl)prop-2-enamide]",85.4
2,"O=C(/C=C/c1ccccc1)NCCCCO [Compound A-43, (2E)-N-(4-hydroxybutyl)-3-phenylprop-2-enamide]",103.2
3,"CCC(O)CNC(=O)/C=C/c1ccc(C)cc1 (centres unmarked) [Compound A-63, (2E)-N-(2-hydroxybutyl)-3-(4-methylphenyl)prop-2-enamide]",87.4
4,"Cc1ccc(/C=C/C(=O)NC(C)CO)cc1 (centres unmarked) [Compound A-69, (2E)-N-(1-hydroxypropan-2-yl)-3-(4-methylphenyl)prop-2-enamide]",97.5
5,"O=C(/C=C/c1ccc(Cl)cc1)N1CCC(O)CC1 [Compound A-99, (2E)-3-(4-chlorophenyl)-1-(4-hydroxypiperidin-1-yl)prop-2-en-1-one]",96.6
6,"CC(C)C(CO)NC(=O)/C=C/c1ccc(Cl)cc1 (centres unmarked) [Compound A-106, (2E)-3-(4-chlorophenyl)-N-(1-hydroxy-3-methylbutan-2-yl)prop-2-enamide]",72.6
7,"CCC(CO)NC(=O)/C=C/c1ccc(Cl)cc1Cl (centres unmarked) [H-285/20, (2E)-3-(2,4-dichlorophenyl)-N-(1-hydroxybutan-2-yl)prop-2-enamide]",24.6
8,"O=C(/C=C/c1ccc(Cl)cc1Cl)NCCCO [H-296/20, (2E)-3-(2,4-dichlorophenyl)-N-(3-hydroxypropyl)prop-2-enamide]",38.3

# From US20250263376A1, “(E)-N-CINNAMOYLAMINOALKANOLS WITH MELANOGENESIS INHIBITORY ACTIVITY” (Uniwersytet Jagiellonski, priority 2024, published 2025)
